Measured values published in US6592545B1, “Particle delivery” (PowderJect Research Limited, priority 1994, dated 2003).
Structures can show the parent of a compound that is named as a salt.

Legend:
[1] = in vivo
Method: In a second study, a single 3.0 mg dose of lignocaine HCL particles (as above) was delivered using a needleless syringe, and a single 0.2 mL dose of 2% lignocaine HCL was delivered via needle-syringe injection. Pain associated with the administration of each treatment was scored in all 14 subjects using a 100 mm visual analogue scale immediately after each treatment, wherein 100% indicates a painful treatment, and 0% indicates a pain-free treatment. The needleless syringe employed in the study was operated using 40 bar helium driving gas to expel anaesthetic particles from a flexible, eversible dome-shaped membrane comprised of a 400 μm, 6 mm polyurethane film.

oral mucosa [2] = test: Visual assessment of oral mucosa delivery sites for damage or irritation after needleless syringe delivery; format: in vivo, human; settings: single 3 mg dose, particles 38-53 μm, 14 subjects, 24-48 hours after delivery
Method: A randomized, double-blind, negatively controlled study was carried out in normal, healthy human subjects as follows. Initially, a single 3 mg dose of lignocaine HCL particles sized between 38 and 53 μm was delivered from a needleless syringe constructed in accordance with the invention. The lignocaine was delivered to the oral mucosa adjacent to the number 12 and 22 lateral incisors in 14 trial subjects. The delivery sites were then visually assessed for evidence of damage or irritation to the mucosal tissues.

oral mucosa [3] = test: Local anaesthesia: pain response to probing oral mucosa with back of 27G dental needle, visual analogue scale; format: in vivo, human; settings: 3.0 mg particles via needleless syringe; probe of treated area 1 minute post delivery; untreated 55.6%, placebo 30.6%
Method: A randomized, double-blind study was then carried out as follows. Treatments were given to 14 subjects over the course of three visits. The treatments provided to the subjects in each visit were either a single 3.0 mg dose of Lignocaine HCL particles from the above-described needleless syringe device, or 0.0 mg (as a blinded negative control). Accordingly, treatments provided over the course of the three visits were either: two actual (3.0 mg) doses of the anaesthetic particles and one placebo; or two placebos and one actual (3.0 mg) dose. Pain stimulus was provided by probing oral mucosa with the back of a 27G dental needle, wherein the probe sequence was a probe on an untreated area of the mucosa, and then a probe on the treated area of the mucosa 1 minute post delivery. Again, the pain associated with the probe of the untreated and treated areas was scored on visual analogue scales using the above scoring methods immediately after each probe.

[4] = oral administration, degraded by the liver; cited from earlier work
[5] = Serum testosterone pharmacokinetics after subcutaneous or OralJect transmucosal delivery (radioimmunoassay); format: in vivo, New Zealand White rabbit; settings: for Cmax: mean
Method: Testosterone (Sigma Chemicals) was milled and sieved into a particle size range (approximately 50-100 μm) suitable for transmucosal delivery from a needleless syringe using standard stainless steel mesh sieves. Female New Zealand White rabbit subjects weighing between 2.2-2.8 kg were used and allowed food and water ad libitum. The rabbits (n=8) were randomly assigned to one of two treatment groups. The first treatment group received testosterone (2.0 mg dose) as a suspension in 35% polyvinylpyrrolidone C-30 in water (6 mg/g testosterone concentration) via subcutaneous injection. The second treatment group received testosterone (2.0 mg dose of testosterone particles ranging from 53-75 μm) as two 1.0 mg transmucosal administrations from an OralJect™ needleless syringe device abutted against the cheek mucosa.
Whole blood (1.0 ml) was taken at times 0, 0.5, 1, 2, 4, 6, 8, 12, 24 and 48 hours, the serum aspirated and assayed for testosterone by radioimmunoassay (DPC). The OralJect™ device is a prototype device of the present invention that is actuated by helium at 40 bar.

SMILES	pain associated with administration, mean visual analogue score [1] [%]	tissue reaction at delivery sites (oral mucosa [2])	mean pain response score to probe (oral mucosa [3]) [%]	first pass degradation [4] [%]	Cmax ([5]; OralJect transmucosal (cheek mucosa), 2 x 1.0 mg particles 53-75 μm, rabbit serum) [nmol/I]	second minor peak of serum testosterone, time post administration ([5]; OralJect transmucosal, possible depot effect) [h]	bioavailability ([5]; female, New Zealand White, rabbit, serum, 2 mg, OralJect transmucosal, 2.0 mg, rabbit, read-out: % BA (% bioavailability)) [%]	Tmax ([5]; female, New Zealand White, rabbit, serum, OralJect transmucosal, 2.0 mg, all animals) [min]	Cmax ([5]; subcutaneous injection, 2.0 mg suspension in 35% polyvinylpyrrolidone C-30, rabbit serum) [nmol/I]	Cmax range ([5]; subcutaneous injection, 2.0 mg, rabbit serum)
CCN(CC)CC(=O)Nc1c(C)cccc1C [lignocaine HCL]	49.9	no evidence of any tissue reaction	15.0	–	–	–	–	–	–	–
C[C@]12CC[C@H]3[C@@H](CCC4=CC(=O)CC[C@@]43C)[C@@H]1CC[C@@H]2O [testosterone, Testosterone]	–	–	–	98	25.5 ± 3.5	12	~48.3	30	34.8 ± 6.9	26.9 − 55.2 nmol/I
